Data on six molecules can be found in US4888357A, “Antiarthritic β-cycloalkyl-β-oxopropionitriles” (Bristol-Myers Company, priority 1988, dated 1989).

Assay [1] relates to adjuvant-induced arthritis. To be noted: J. Med. Chem., 1979, 22:1385-9; cited from earlier work.
Assay [2] deals with adjuvant-induced polyarthritis (hind paw volume). In words: Modified developing adjuvant arthritis in rats (adjuvant-induced polyarthritis, AIP). Type of assay: in vivo, male Lewis rats. To be noted: for inhibition in vivo at 100 mg/kg: 100 mg/kg once daily p.o. d. 1-8. How it is done:
A. Modified Developing Adjuvant Arthritis in Rats
This test is based on the procedure originally described by Pearson (Proc. Soc. Biol. Med., 1956, pp 91-5). Each experimental group used six male Lewis rats weighing approx. 250 gm. Arthritis was produced by a single intradermal injection of Mycobacterium butyricum (0.6 mg in 0.1 ml mineral oil) into the base of the tail. Test compounds were administered orally, once daily, starting on the day of inoculation (day 1) through day 8. The initial dosage was reduced during this period when side effects were observed. The paw volume (average of two hind paws) was measured by the merccury displacement method at least twice weekly during the course of the experiment (40 to 42 days). The efficacy of a compound was expressed as the percent reduction of hind paw volume of treated vs. untreated rats using the following equation: [formula]
^a once daily, p.o., from d. 1-8 (unless otherwise specified).
^b % Inhibition of paw edema: 0 = <25; + = 25- <40; ++ = 40-<60; +++

In assay [3] the test system is delayed-type hypersensitivity (DTH) response. In words: Delayed type hypersensitivity (DTH) response to Mycobacterium butyricum challenge in rats. It counts as in vivo, male Lewis rats. The method, then: C. Delayed Type Hypersensitivity (DTH)
Male Lewis rats were immunized on Day 1. Mycobacterium butyricum in mineral oil (6 mg/ml) was injected into the base of the tail at 0.1 ml per rat. A negative control group receiving an equal amount of mineral oil was included. Drug therapy was administered orally from day one to day eight. Delayed type hypersensitivity was tested on day 9. Purified protein derivative (Tuberculin PPD, Statens Seruminstitute, Tuberculin Department, DK-2300 Copenhagen S, Denmark) was dissolved in phosphate buffered saline at 2.5 mg/ml. Twenty μl (50 μg) of the PPD solution was injected intradermally into the right ear of the rat, and the conralateral ear received 20 μl of the phosphate buffered saline vehicle. Forty-eight hours after injection the thickness of both ears was measured to the nearest 0.01 mm using a hand held caliper. The difference between the thickness of right and left ears was defined as the delta value for each rat. Group means and standard errors were compared using a Dunnett's 2-tail test.

Setting [4] is: Rattus norvegicus, po, 480 h, read d. 20-22, read-out: AIP Inhib. score (% Inhibition of paw edema) d. 20-22.
[5] abbreviates: Rattus norvegicus, po, 960 h, read d. 40-42, read-out: AIP Inhib. score (% Inhibition of paw edema) d. 40-42.

The structures appear in SMILES notation. Where two headings read alike, the source gives them in different places.

Turning to `N#CCC(=O)c1ccccc1` [Benzoylacetonitrile (I), Benzoylacetonitrile], in assay [1], the “inhibition of adjuvant-induced arthritis in rats” value was “effective inhibitors of adjuvant-induced arthritis in rats”.
Consider `CNC(=O)C(C#N)C(=O)C1CC1` (stereo not drawn) [Example 1, β-Cyclopropyl-β-oxo-α-methylcarbamoylpropionitrile], for which the inhibition in vivo at 100 mg/kg in assay [2] (setting [4]) and in assay [2] (setting [5]) was 80 to 100% in each case. The “% Reduction-DTH” value in assay [3] (10 mg/kg/d × 8 d. p.o.) amounted to 20%; in assay [3] (30 mg/kg/d × 8 d. p.o.) it was 41%; in assay [3] (60 mg/kg/d × 8 d. p.o.), 56%. In addition, the “immunomodulating activity (ability to reduce delayed hypersensitivity)” value in assay [3] (arthritic rats) is “exhibits immunomodulating activity”.
Take `CN(C)C(=O)C(C#N)C(=O)C1CC1` (stereo not drawn) [Example 3, β-Cyclopropyl-α-dimethylcarbamoyl-β-oxopropionitrile]: the inhibition in vivo at 100 mg/kg in assay [2] (setting [4]) and in assay [2] (setting [5]) was 60 to 80% in each case.
For `C#CCNC(=O)C(C#N)C(=O)C1CC1` (stereo not drawn) [Example 4, β-Cyclopropyl-β-oxo-α-propargylcarbamoylpropionitrile], the “AIP Inhib. score (% Inhibition of paw edema) d. 40-42” value in assay [2] (50 mg/kg once daily p.o. d. 1-8, read d. 40-42) is listed as “++ +”. Besides, in assay [2] (Rattus norvegicus, po, 480 h, 50 mg/kg once daily p.o. d. 1-8, read d. 20-22, read-out: AIP Inhib. score (% Inhibition of paw edema) d. 20-22), the inhibition in vivo at 50 mg/kg lay within 60 to 80%.
Regarding `N#CC(C(=O)NC1CCC1)C(=O)C1CC1` (stereo not drawn) [Example 6, α-Cyclobutylcarbamoyl-β-cyclopropyl-β-oxopropionitrile], the inhibition in vivo at 100 mg/kg in assay [2] (setting [4]) and in assay [2] (setting [5]) was 25 to 40% throughout.
Take `CNC(=O)C(C#N)C(=O)C1CCC1` (stereo not drawn) [Example 7, β-Cyclobutyl-β-oxo-α-methylcarbamoylpropionitrile]: the inhibition in vivo at 100 mg/kg in assay [2] (setting [4]) was less than 25%; in assay [2] (setting [5]), 25 to 40%.
